Laboratory results published in ChEMBL document CHEMBL5321223, “Effects and mechanism of action of Chrysanthemum morifolium (Jinsi Huangju) on hyperlipidemia and non-alcoholic fatty liver disease” (Eur J Med Chem, 2023).
Calls of active or inactive are those of the source. No cut-off for these calls is given here.

Key:
[1] = target: T1, Pancreatic triacylglycerol lipase (Homo sapiens) (UniProt P16233); experiment: Inhibition of Pancreatic lipase (unknown origin) using 4-methylumbelleallyl oleate as substrate at 50 uM by microplate reader assay
T1 sequence (whole entry): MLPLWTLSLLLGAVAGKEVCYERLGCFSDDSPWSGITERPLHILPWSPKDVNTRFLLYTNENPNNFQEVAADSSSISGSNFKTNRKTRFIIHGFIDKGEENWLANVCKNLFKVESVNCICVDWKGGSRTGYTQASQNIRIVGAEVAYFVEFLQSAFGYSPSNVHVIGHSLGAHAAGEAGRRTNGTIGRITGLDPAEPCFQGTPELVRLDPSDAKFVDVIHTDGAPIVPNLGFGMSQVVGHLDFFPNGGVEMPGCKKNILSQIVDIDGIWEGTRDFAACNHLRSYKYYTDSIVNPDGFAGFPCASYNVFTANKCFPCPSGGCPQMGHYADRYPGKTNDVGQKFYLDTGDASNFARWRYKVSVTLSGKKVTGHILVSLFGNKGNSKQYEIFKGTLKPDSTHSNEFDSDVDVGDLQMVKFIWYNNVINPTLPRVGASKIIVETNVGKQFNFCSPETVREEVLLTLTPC

[2] = target: T1, Pancreatic triacylglycerol lipase (Homo sapiens); experiment: Inhibition of Pancreatic lipase (unknown origin) using 4-methylumbelleallyl oleate as substrate at 5 uM by microplate reader assay
HepG2 [3] = experiment: Cytotoxicity against human HepG2 cells assessed as reduction in cell survival at 50 uM; type: toxicity, cell-based; settings: hepg2, 50 µM
HepG2 [4] = experiment: Hypolipidemic activity in sodium oleate and sodium palmitate induced human HepG2 cells assessed as decrease in intracellular lipid content at 5 uM by Oil Red O staining based assay; type: functional; set-up: scale not given: the % may be the effect or the level left
HepG2 [5] = experiment: Hypolipidemic activity in sodium oleate and sodium palmitate induced human HepG2 cells assessed as decrease in intracellular lipid content at 50 uM by Oil Red O staining based assay; type: functional; set-up: scale not given: the % may be the effect or the level left
HepG2 [6] = experiment: Hypolipidemic activity in sodium oleate and sodium palmitate induced human HepG2 cells assessed as decrease in intracellular lipid content at 0.2 uM by Oil Red O staining based assay; type: functional, cell-based
HepG2 [7] = experiment: Hypolipidemic activity in sodium oleate and sodium palmitate induced human HepG2 cells assessed as decrease in intracellular lipid content at 0.2 to 50 uM by Oil Red O staining based assay; type: functional, cell-based; settings: dose 0.2-50 µM
HepG2 [8] = experiment: Hypolipidemic activity in sodium oleate and sodium palmitate induced human HepG2 cells assessed as decrease in intracellular triglyceride level at 50 uM; type: functional; set-up: scale not given: the % may be the effect or the level left
HepG2 [9] = experiment: Hypolipidemic activity in sodium oleate and sodium palmitate induced human HepG2 cells assessed as decrease in intracellular triglyceride level at 10 uM; type: functional; set-up: scale not given: the % may be the effect or the level left
HepG2 [10] = experiment: Hypolipidemic activity in sodium oleate and sodium palmitate induced human HepG2 cells assessed as decrease in intracellular triglyceride level at 5 uM; type: functional; set-up: scale not given: the % may be the effect or the level left
HepG2 [11] = experiment: Hypolipidemic activity in sodium oleate and sodium palmitate induced human HepG2 cells assessed as decrease in intracellular triglyceride level at 1 uM; type: functional; set-up: scale not given: the % may be the effect or the level left
HepG2 [12] = experiment: Hypolipidemic activity in sodium oleate and sodium palmitate induced human HepG2 cells assessed as decrease in intracellular triglyceride level at 0.2 uM; type: functional; set-up: scale not given: the % may be the effect or the level left
HepG2 [13] = experiment: Anti-hyperglycemic activity in 24 hrs serum deprived human HepG2 cells assessed as alleviation in insulin resistance by measuring increase in cellular glucose consumption at 0.2 to 50 uM and measured after 24 hrs by glucose kit anlaysis; type: functional, cell-based; settings: dose 0.2-50 µM
HepG2 [14] = experiment: Activation of AMPK signaling pathway in human HepG2 cells assessed as increase in AMPK phosphorylation at 0.2 to 50 uM by Western blot analysis; type: cell-based; settings: filed as activator, dose 0.2-50 µM
HepG2 [15] = experiment: Activation of AMPK signaling pathway in human HepG2 cells assessed as increase in ACC phosphorylation at 0.2 to 50 uM by Western blot analysis; type: cell-based; settings: filed as activator, dose 0.2-50 µM
Mus musculus [16] = experiment: Hypolipidemic activity in 24hrs fasted tyloxapol induced NAFLD Kunming mouse model assessed as decrease in serum TC level at 50 to 200 mg/kg, IG and measured after 24 hrs by biochemical analysis relative to control; type: functional, organism-based; settings: dose 50-200 mg/kg
Mus musculus [17] = experiment: Hypolipidemic activity in 24hrs fasted tyloxapol induced NAFLD Kunming mouse model assessed as decrease in serum TG level at 50 to 200 mg/kg, IG and measured after 24 hrs by biochemical analysis relative to control; type: functional, organism-based; settings: dose 50-200 mg/kg
Mus musculus [18] = experiment: Hypolipidemic activity in 24hrs fasted tyloxapol induced NAFLD Kunming mouse model assessed as decrease in serum LDL-C level at 50 to 200 mg/kg, IG and measured after 24 hrs by biochemical analysis relative to control; type: functional, organism-based; settings: dose 50-200 mg/kg
Mus musculus [19] = experiment: Hypolipidemic activity in 24hrs fasted tyloxapol induced NAFLD Kunming mouse model assessed as increase in serum HDL-C level at 50 to 200 mg/kg, IG and measured after 24 hrs by biochemical analysis relative to control; type: functional, organism-based; settings: dose 50-200 mg/kg
Mus musculus [20] = experiment: Hypolipidemic activity in 24hrs fasted tyloxapol induced NAFLD Kunming mouse model assessed as decrease in hepatic TC level at 50 to 200 mg/kg, IG and measured after 24 hrs by biochemical analysis relative to control; type: functional, organism-based; settings: dose 50-200 mg/kg
Mus musculus [21] = experiment: Hypolipidemic activity in 24hrs fasted tyloxapol induced NAFLD Kunming mouse model assessed as decrease in hepatic TG level at 50 to 200 mg/kg, IG and measured after 24 hrs by biochemical analysis relative to control; type: functional, organism-based; settings: dose 50-200 mg/kg
Mus musculus [22] = experiment: Hypolipidemic activity in 24hrs fasted tyloxapol induced NAFLD Kunming mouse model assessed as decrease in hepatic LDL-C level at 50 to 200 mg/kg, IG and measured after 24 hrs by biochemical analysis relative to control; type: functional, organism-based; settings: dose 50-200 mg/kg
Mus musculus [23] = experiment: Hypolipidemic activity in 24hrs fasted tyloxapol induced NAFLD Kunming mouse model assessed as increase in hepatic HDL-C level at 50 to 200 mg/kg, IG and measured after 24 hrs by biochemical analysis relative to control; type: functional, organism-based; settings: dose 50-200 mg/kg
Mus musculus [24] = experiment: Reduction in liver damage in 24hrs fasted tyloxapol induced NAFLD Kunming mouse model assessed as decrease in serum ALT level at 50 to 200 mg/kg, IG and measured after 24 hrs by biochemical analysis relative to control; type: functional, organism-based; settings: dose 50-200 mg/kg
Mus musculus [25] = experiment: Reduction in liver damage in 24hrs fasted tyloxapol induced NAFLD Kunming mouse model assessed as decrease in serum AST level at 50 to 200 mg/kg, IG and measured after 24 hrs by biochemical analysis relative to control; type: functional, organism-based; settings: dose 50-200 mg/kg
Mus musculus [26] = experiment: Reduction in liver damage in 24hrs fasted tyloxapol induced NAFLD Kunming mouse model assessed as decrease in ALT level in liver at 50 to 200 mg/kg, IG and measured after 24 hrs by biochemical analysis relative to control; type: functional, organism-based; settings: dose 50-200 mg/kg
Mus musculus [27] = experiment: Reduction in liver damage in 24hrs fasted tyloxapol induced NAFLD Kunming mouse model assessed as decrease in AST level in liver at 50 to 200 mg/kg, IG and measured after 24 hrs by biochemical analysis relative to control; type: functional, organism-based; settings: dose 50-200 mg/kg
Mus musculus [28] = experiment: Reduction in oxidative stress in 24hrs fasted tyloxapol induced NAFLD Kunming mouse model assessed as increase in serum SOD level at 50 to 200 mg/kg, IG and measured after 24 hrs by biochemical analysis relative to control; type: functional, organism-based; settings: dose 50-200 mg/kg
Mus musculus [29] = experiment: Reduction in oxidative stress in 24hrs fasted tyloxapol induced NAFLD Kunming mouse model assessed as decrease in hepatic MPO level at 50 to 200 mg/kg, IG and measured after 24 hrs by biochemical analysis relative to control; type: functional, organism-based; settings: dose 50-200 mg/kg
Mus musculus [30] = experiment: Amelioration of hepatic lesion in 24hrs fasted tyloxapol induced NAFLD Kunming mouse model assessed as reduction in liver morphology alteration at 50 to 200 mg/kg, IG; type: functional, organism-based; settings: dose 50-200 mg/kg
Mus musculus [31] = experiment: Amelioration of hepatic lesion in 24hrs fasted tyloxapol induced NAFLD Kunming mouse model assessed as reduction in liver index at 50 to 200 mg/kg, IG; type: functional, organism-based; settings: dose 50-200 mg/kg
Mus musculus [32] = experiment: Amelioration of hepatic lesion in 24hrs fasted tyloxapol induced NAFLD Kunming mouse model assessed as reduction in hepatic steatosis at 50 to 200 mg/kg, IG by H and E staining based analysis; type: functional, organism-based; settings: dose 50-200 mg/kg
Mus musculus [33] = experiment: Amelioration of hepatic lesion in 24hrs fasted tyloxapol induced NAFLD Kunming mouse model assessed as reduction in fat deposition at 50 to 200 mg/kg, IG by H and E staining based analysis; type: functional, organism-based; settings: dose 50-200 mg/kg
Mus musculus [34] = experiment: Amelioration of hepatic lesion in 24hrs fasted tyloxapol induced NAFLD Kunming mouse model assessed as reduction in hepatic steatosis at 50 to 200 mg/kg, IG by Oil red O staining based analysis; type: functional, organism-based; settings: dose 50-200 mg/kg
Mus musculus [35] = experiment: Amelioration of hepatic lesion in 24hrs fasted tyloxapol induced NAFLD Kunming mouse model assessed as reduction in fat deposition at 50 to 200 mg/kg, IG by Oil red O staining based analysis; type: functional, organism-based; settings: dose 50-200 mg/kg
[36] = Reduction in hepatic inflammation in 24hrs fasted tyloxapol induced NAFLD Kunming mouse model assessed as decrease in IL-6 level in liver at 50 mg/kg, IG and measured after 24 hrs; type: functional; set-up: scale not given: the % may be the effect or the level left
[37] = Reduction in hepatic inflammation in 24hrs fasted tyloxapol induced NAFLD Kunming mouse model assessed as decrease in IL-6 level in liver at 100 mg/kg, IG and measured after 24 hrs; type: functional; set-up: scale not given: the % may be the effect or the level left
[38] = Reduction in hepatic inflammation in 24hrs fasted tyloxapol induced NAFLD Kunming mouse model assessed as decrease in IL-6 level in liver at 200 mg/kg, IG and measured after 24 hrs; type: functional; set-up: scale not given: the % may be the effect or the level left
Mus musculus [39] = experiment: Hypolipidemic activity in 24hrs fasted tyloxapol induced NAFLD Kunming mouse model assessed as decrease in spleen index at 50 to 200 mg/kg, IG relative to control; type: functional, organism-based; settings: dose 50-200 mg/kg
Mus musculus [40] = experiment: Hypolipidemic activity in 24hrs fasted tyloxapol induced NAFLD Kunming mouse model assessed as decrease in epididymis in white adipose tissue at 200 mg/kg, IG relative to control; type: functional, organism-based
Mus musculus [41] = experiment: In vivo activation of AMPK pathway in 24hrs fasted tyloxapol induced NAFLD Kunming mouse model assessed as increase in AMPK phosphorylation in liver at 200 mg/kg, IG and measured after 24 hrs by Western blot anlaysis; type: functional, organism-based
Mus musculus [42] = experiment: In vivo activation of AMPK pathway in 24hrs fasted tyloxapol induced NAFLD Kunming mouse model assessed as increase in ACC phosphorylation in liver at 200 mg/kg, IG and measured after 24 hrs by Western blot anlaysis; type: functional, organism-based

O=c1cc(-c2ccc(O)cc2)oc2cc(O)cc(O)c12 [APIGENIN]
inhibition [1]: 56.3%
inhibition [2]: 26.7%
Activity (HepG2 [3]): Toxic
Activity (HepG2 [4]): 92.4%

O=c1cc(-c2ccc(O)c(O)c2)oc2cc(O)cc(O)c12 [LUTEOLIN]
inhibition [1]: 41.2%
inhibition [2]: 27.4%
Activity (HepG2 [3]): Toxic
Activity (HepG2 [4]): 91.6%

O=C(O)CC(=O)OC[C@H]1O[C@@H](Oc2cc(O)c3c(=O)cc(-c4ccc(O)cc4)oc3c2)[C@H](O)[C@@H](O)[C@@H]1O
inhibition [1]: 47.2%
inhibition [2]: 35%
Activity (HepG2 [3]): Non-Toxic
Activity (HepG2 [5]): 67.3%
Activity (HepG2 [4]): 74.9%
Activity (HepG2 [6]): Active
Activity (HepG2 [7]): Dose-Dependent Effect
Activity (HepG2 [8]): 73%
Activity (HepG2 [9]): 55.1%
Activity (HepG2 [10]): 54.7%
Activity (HepG2 [11]): 52.2%
Activity (HepG2 [12]): 48.6%
Activity (HepG2 [13]): Active
Activity (HepG2 [14]): Active
Activity (HepG2 [15]): Active
Activity (Mus musculus [16]): Active
Activity (Mus musculus [17]): Active
Activity (Mus musculus [18]): Active
Activity (Mus musculus [19]): Active
Activity (Mus musculus [20]): Active
Activity (Mus musculus [21]): Active
Activity (Mus musculus [22]): Active
Activity (Mus musculus [23]): Active
Activity (Mus musculus [24]): Active
Activity (Mus musculus [25]): Active
Activity (Mus musculus [26]): Active
Activity (Mus musculus [27]): Active
Activity (Mus musculus [28]): Active
Activity (Mus musculus [29]): Active
Activity (Mus musculus [30]): Active
Activity (Mus musculus [31]): Active
Activity (Mus musculus [32]): Active
Activity (Mus musculus [33]): Active
Activity (Mus musculus [34]): Active
Activity (Mus musculus [35]): Active
Activity [36]: 23.68%
Activity [37]: 22.44%
Activity [38]: 18.03%
Activity (Mus musculus [39]): Active
Activity (Mus musculus [40]): Active
Activity (Mus musculus [41]): Active
Activity (Mus musculus [42]): Active

O=c1cc(-c2ccc(O)cc2)oc2cc(O[C@@H]3O[C@H](CO)[C@@H](O)[C@H](O)[C@H]3O)cc(O)c12 [APIGETRIN]
inhibition [1]: 59.1%
inhibition [2]: 13.2%
Activity (HepG2 [3]): Non-Toxic
Activity (HepG2 [5]): 97.7%
Activity (HepG2 [4]): 95.1%
